Reference: US20050014731A1, “Treatment of Th1 dominated immunological disease states with non-endogenous gestagen compounds” (Solvay Pharmaceuticals GmbH, priority 2002, published 2005)

Legend:
[1] = system: peripheral blood mononuclear cells (=PBMC); experiment: Th1 and Th2 cytokine profiles produced by mitogen-stimulated PBMC (ELISA), ex vivo; assay type: cell-based, human
Description: The effects of dydrogesterone on Th1 and Th2 cytokine profiles produced by mitogen-stimulated peripheral blood mononuclear cells (=PBMC) were determined. Several studies have pointed to a deviation of cytokine profiles in women when during pregnancy. Pregnancy is associated with a shift towards Th2 bias, evinced by changes in peripheral T cells, by cytokine production by peripheral lymphocytes and by cytokine changes at the maternal-fetal interface. Unexplained recurrent spontaneous abortion (URSA) seems to be associated with a stronger bias towards Th1 cytokines. Women who have earlier been gone through URSA may therefore be regarded as a pre-selected group of patients that will typically respond to an immunological stimulation by showing a Th1 dominated pattern of immune response. The pharmacological test was therefore performed with a suitable URSA group which comprised of women admitted with spontaneous abortion for evacuation, (i) who have had at least two previous unexplained miscarriages, (ii) who were currently undergoing at least a 3rd abortion and (iii) who had been fully investigated. The relationship between habitual abortion and cytokine production response in 54 women with normal pregnancy (and at least 3 previous normal pregnancies) and 23 women with a history of habitual abortion of unexplained aetiology (URSA group) has been investigated. Mitogen-induced stimulation of Peripheral Blood Mononuclear Cells (PBMC): Peripheral blood was obtained by venipuncture from the abortion group on the day of abortion. PBMC is separated by Ficoll-paque (Pharmacia Biotech, Sweden) density gradient centrifugation, suspended in RPMI medium (=“Roswell Park Memorial Institute”-medium; obtained from GIBCO/BRL, USA) containing 10% fetal calf serum, aliquoted into 96 well tissue culture plates at a density of 100.000 cells per well and then stimulated with the mitogen phytohemagglutinin (=PHA, Sigma Chemicals, USA) at a concentration of […] for a period of 96 hours, with autologous placental antigens or with trophoblast antigens. Progesterone, dydrogesterone (Duphaston®) and RU486 (=mifepristone) was added in different combinations as described below. Progesterone was tested at concentrations of […]. RU486 was tested at equivalent concentrations. Culture supernatants were harvested at 96 hours for determination of the levels of cytokines secreted by the PBMC into the supernatants. Cytokine levels were determined in the supernatants by enzyme-linked immunosorbent assay (=ELISA). Protocol of Experimental Samples: Each sample was tested in the following manner: • PBMC+mitogen • PBMC+mitogen+progesterone • PBMC+mitogen+progesterone+RU486 • PBMC+mitogen+dydrogesterone • PBMC+mitogen+dydrogesterone+RU486 • PBMC+mitogen+Carrier • PBMC+mitogen+Carrier+RU486 Determination of cytokine levels by ELISA: Th1 cytokines TNF-α and IFN-γ, and Th2 cytokines IL-4, IL-6 and IL-10 were evaluated in these samples by ELISA using kits that were obtained from Immunotech SA, France. These consisted of “sandwich ELISA”; briefly the first step leads to the capture of the relevant cytokine by monoclonal anti-cytokine antibodies bound to the wells of microtiter plates. In the second step, a second biotinylated monoclonal is added together with streptavidin-enzyme (peroxidase or alkaline phosphatase) conjugate. The biotinylated antibody binds to the solid phase antibody-antigen complex, and in turn, binds the conjugate. After incubation the wells are washed and the binding of the streptavidin-enzyme via biotin is followed by the addition of a chromogenic substrate. The intensity of the coloration produced is proportional to the concentration of the cytokine in the sample. Standard curves are plotted for each of the cytokines using reference recombinant cytokines and the results are read from these curves. The sensitivity of each of the assays is as follows: 5 pg/ml of TNF-α, 0.08 IU/ml of IFN-γ, 5 pg/ml of IL-4 and 5 pg/ml of IL-10. […]

pregnant mice = experiment: murine stress-induced abortion model; assay type: in vivo
Text: The results of the pharmacological test method given above can also be confirmed in an in vivo test model involving pregnant mice. […] Pregnant mice were exposed to ultrasound on day 5 of gestation. This stress increased the abortion rate of these mice from around 12% to 44%. Treatment with dydrogesterone reduced the abortion in a dose-related manner to as low as 5%.

[2] = system: Th1 cytokine production to trophoblast; details: in vitro, women with recurrent pregnancy loss; Choi et al., Human Reproduction 15/1 (2000) 46-59; cited from earlier work
[3] = PHA-stimulated PBMC supernatant, ELISA, 96 hours
[4] = women with spontaneous abortion and habitual abortion

Row | Compound | IFN-γ [1, 3] | Interleukin 4 [1, 3] | Interleukin 6 [1, 3] | Th1/Th2 bias ([1]; PHA-stimulated PBMC, 96 hours, women with spontaneous and habitual abortion) | activity of lymphocytes [1, 4] | release of progesterone induced blocking factor (PIBF) [1, 4] | Th1/Th2-cytokine production (pregnant mice; murine stress-induced abortion model) | abortion rate (pregnant mice; pregnant mice exposed to ultrasound on day 5 of gestation, dose-related, stress raised rate from around 12% to 44%) [%] | level of IL-4 (pregnant mice; pregnant mice exposed to ultrasound stress on day 5 of gestation) | embryotoxic Th1 cytokine production to trophoblast [2]
1 | CC(=O)[C@H]1CC[C@H]2[C@@H]3C=CC4=CC(=O)CC[C@@]4(C)[C@@H]3CC[C@]12C [dydrogesterone] | reduction of IFN-γ | marked increase | marked increase | shift from a Th1 towards a Th2 bias | reduced the activity of lymphocytes | increased release | shift from Th1 to Th2-cytokine production | ≥ 5 | increased level | –
2 | CC(=O)[C@H]1CC[C@H]2[C@@H]3CCC4=CC(=O)CC[C@]4(C)[C@H]3CC[C@]12C [progesterone] | – | – | – | – | – | – | – | – | – | inhibits
